{"source": "paper PMC9921896", "about": "(Molecules, 2023)", "origin": "cited, not measured here", "key": {"[1]": {"conditions": "cited from earlier work"}, "[2]": {"conditions": "cited from earlier work", "remark": "listed apart in the source"}, "[3]": {"test_system": "estrogenicity", "conditions": "cited from earlier work"}}, "data": [{"smiles": "CC(C)(c1ccc(O)cc1)c1ccc(O)cc1", "note": "[BPA, Bisphenol A]", "values": [{"measurement": "new TDI (draft opinion)", "setting": "[1]; EFSA draft opinion", "value": "0.04 ng (kg bw)^−1 day^−1"}, {"measurement": "t-TDI", "setting": "[1]; set by EFSA in 2015", "value": "4 μg (kg bw)^−1 day^−1"}, {"measurement": "highest dose level with no negative impact on the health", "setting": "[2]; CLARITY-BPA core study", "value": "25,000 μg kg bw^−1 day^−1"}, {"measurement": "lowest-observed-adverse-effect level (LOAEL)", "setting": "[2]; suggested from low-dose effects", "value": "2.5 μg (kg bw)^−1 day^−1"}]}, {"smiles": "CC(C)(c1ccc(O)cc1)c1ccc(O[C@@H]2O[C@H](C(=O)O)[C@@H](O)[C@H](O)[C@H]2O)cc1", "note": "[BPA-based Glucuronide metabolite, reference compound]", "values": [{"measurement": "estrogenicity", "setting": "[3]; BPA glucuronide", "value": "non-estrogenic"}]}, {"smiles": "C=C(CC(C)(C)c1ccc(O)cc1)c1ccc(O)cc1", "note": "[MBP, 4-methyl-2,4-bis(p-hydroxyphenyl) pent-1-ene, reference compound]", "values": [{"measurement": "estrogenicity relative to BPA", "setting": "[3]; metabolite formed with rat liver S9 fraction", "value": "several-thousand-fold"}]}]}
